This is an account of results in US12384776B2, “Compounds and uses thereof” (Foghorn Therapeutics Inc., priority 2019, dated 2025).

Some results are limits rather than exact numbers.

Chain of Nanoluciferase-BRD9 fusion protein (3×FLAG-NLuc-BRD9) in SYO-1 cells (Q9H8M2 whole entry, the tested form may be a part): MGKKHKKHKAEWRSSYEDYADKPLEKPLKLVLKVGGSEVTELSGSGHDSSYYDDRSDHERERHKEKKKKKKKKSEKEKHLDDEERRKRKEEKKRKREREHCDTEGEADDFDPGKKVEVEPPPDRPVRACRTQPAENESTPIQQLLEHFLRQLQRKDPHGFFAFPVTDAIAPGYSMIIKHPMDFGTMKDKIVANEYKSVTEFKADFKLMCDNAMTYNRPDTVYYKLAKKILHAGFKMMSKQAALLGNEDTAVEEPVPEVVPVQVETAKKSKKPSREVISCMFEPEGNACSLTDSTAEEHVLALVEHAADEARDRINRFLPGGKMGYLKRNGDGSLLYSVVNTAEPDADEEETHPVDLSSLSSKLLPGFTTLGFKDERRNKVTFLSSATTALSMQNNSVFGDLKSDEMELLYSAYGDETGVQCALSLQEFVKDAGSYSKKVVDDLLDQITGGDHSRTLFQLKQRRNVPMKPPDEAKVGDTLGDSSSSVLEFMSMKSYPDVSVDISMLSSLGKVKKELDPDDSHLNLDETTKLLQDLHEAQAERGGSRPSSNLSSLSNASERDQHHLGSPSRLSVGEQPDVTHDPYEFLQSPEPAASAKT

For the first test, the target named is BRD9 bromodomain (Homo sapiens (Human), UniProt Q9H8M2). In words: BRD9 bromodomain TR-FRET competition binding assay.
Chain of BRD9 bromodomain (Q9H8M2 133-239): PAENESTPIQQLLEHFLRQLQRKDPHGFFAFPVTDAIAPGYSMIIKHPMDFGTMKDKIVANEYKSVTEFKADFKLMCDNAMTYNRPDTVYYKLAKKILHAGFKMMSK
Settings: not given
As for the experimental part:
Procedure: His-Flag-BRD9 (P133-K239; Swiss Prot Q9H8M2; SEQ ID NO:1 mgsshhhhhhenlyfq/gdykddddkgslevlfqg/[…] […]) was cloned, expressed, purified, and then treated with TEV protease. Cleaved His tag was removed by purification. The binding of a biotinylated small molecule ligand of BRD9 was assessed via the LANCE® TR-FRET platform (PerkinElmer), and the compounds were assayed for inhibitory activity against this interaction.
Results: A mixture of biotinylated-ligand and SureLight™ Allophycocyanin-Streptavidin (APC-SA, PerkinElmer AD0201) in 50 mM HEPES (pH 7.4), 50 mM NaCl, 1 mM TCEP (pH 7), 0.01% (v/v) Tween-20, 0.01% (w/v) bovine serum albumin was added to a white 384-well PerkinElmer Proxiplate Plus plate. DMSO or 3-fold serially diluted compounds were then added to the Proxiplate followed by addition of Flag-BRD9. After a 10-minute incubation at room temperature, Eu—W1024 anti-FLAG (PerkinElmer, AD0273) was added. The final reaction mixture that contained 3.75 nM biotinylated ligand, 3 nM Flag-BRD9, 7.5 nM SureLight™ Allophycocyanin-Streptavidin, and 0.2 nM Eu—W1024 anti-FLAG was incubated at room temperature for 90 minutes.
The plates were then read on a PerkinElmer Envision plate reader to determine the ratio of emission at 665 nm over 615 nm. […]
In the case of `COc1cc(-c2cn(C)c(=O)c3c2CCN(C(=O)N(C)C)C3)cc(OC)c1CN(C)C` [Compound B6, 5-(4-((dimethylamino)methyl)-3,5-dimethoxyphenyl)-N,N,7-trimethyl-8-oxo-3,4,7,8-tetrahydro-2,7-naphthyridine-2 (1H)-carboxamide], the concentration for half-maximal inhibition (IC50) was above 100 nM.

Consider `COc1cc(-c2cn(C)c(=O)c3c2CCN(C(=O)NC2CCN(CCOc4ccc5c(c4)C(=O)N(C4CCC(=O)NC4=O)C5=O)CC2)C3)cc(OC)c1CN(C)C` (stereo not shown) [Compound D26, 5-[4-[(dimethylamino)methyl]-3,5-dimethoxyphenyl]-N-[1-(2-[[2-(2,6-dioxopiperidin-3-yl)-1,3-dioxoisoindol-5-yl]oxy]ethyl)piperidin-4-yl]-7-methyl-8-oxo-3,4-dihydro-1H-2,7-naphthyridine-2-carboxamide formic acid], for which the IC50 was below 10 nM.

Compound `COc1cc(-c2cn(C)c(=O)c3c2CCNC3)cc(OC)c1CN(C)C` [Compound B17, 4-[4-[(dimethylamino)methyl]-3,5-dimethoxyphenyl]-2-methyl-1,2,5,6,7,8-hexahydro-2,7-naphthyridin-1-one] yielded an IC50 above 1000 nM.

Regarding `CCOC(=O)N1CCc2c(-c3cc(OC)c(CN(C)C)c(OC)c3)cn(C)c(=O)c2C1` [Compound B11, ethyl 5-[4-[(dimethylamino)methyl]-3,5-dimethoxyphenyl]-7-methyl-8-oxo-1,2,3,4,7,8-hexahydro-2,7-naphthyridine-2-carboxylate], the half-maximal inhibitory concentration (IC50) was above 1000 nM.

Compound `COc1cc(-c2cn(C)c(=O)c3c2CCN(C(=O)NCCCCCC(=O)N[C@H](C(=O)N2C[C@H](O)C[C@H]2C(=O)NCc2ccc(-c4scnc4C)cc2)C(C)(C)C)C3)cc(OC)c1CN(C)C` [Compound D36, (2S,4R)-1-[(2S)-2-[6-(5-[4-[(dimethylamino)methyl]-3,5-dimethoxyphenyl]-7-methyl-8-oxo-3,4-dihydro-1H-2,7-naphthyridine-2-carbonylamino)hexanamido]-3,3-dimethylbutanoyl]-4-hydroxy-N-[[4-(4-methyl-1,3-thiazol-5-yl)phenyl]methyl]pyrrolidine-2-carboxamide] came in with an IC50 above 10 nM.

`CCCCNC(=S)N1CCc2c(-c3cc(OC)c(CN(C)C)c(OC)c3)cn(C)c(=O)c2C1` [Compound B20, N-butyl-5-(4-((dimethylamino)methyl)-3,5-dimethoxyphenyl)-7-methyl-8-oxo-3,4,7,8-tetrahydro-2,7-naphthyridine-2 (1H)-carbothioamide] returned an IC50 above 10 nM.

Compound `COc1cc(-c2cn(C)c(=O)c3c2CNC(C(=O)O)C3)cc(OC)c1CN(C)C` (stereo not shown) [Compound B2, 8-[4-[(dimethylamino)methyl]-3,5-dimethoxyphenyl]-6-methyl-5-oxo-1,2,3,4,5,6-hexahydro-2,6-naphthyridine-3-carboxylic acid] showed an IC50 above 1000 nM.

Take `CCN1CCc2c(-c3cc(OC)c(CN(C)C)c(OC)c3)cn(C)c(=O)c2C1` [Compound B15, 4-[4-[(dimethylamino)methyl]-3,5-dimethoxyphenyl]-7-ethyl-2-methyl-1,2,5,6,7,8-hexahydro-2,7-naphthyridin-1-one formic acid]: the IC50 is above 1000 nM.

`COc1cc(-c2cn(C)c(=O)c3c2CCN(CCO)C3)cc(OC)c1CN(C)C` [Compound B10, 4-[4-[(dimethylamino)methyl]-3,5-dimethoxyphenyl]-7-(2-hydroxyethyl)-2-methyl-1,2,5,6,7,8-hexahydro-2,7-naphthyridin-1-one] came in with a half-inhibitory concentration (IC50) above 1000 nM.

For the compound `CNC(=O)C1Cc2c(c(-c3cc(OC)c(CN(C)C)c(OC)c3)cn(C)c2=O)CN1` (stereo not shown) [Compound B3, 8-[4-[(dimethylamino)methyl]-3,5-dimethoxyphenyl]-N,6-dimethyl-5-oxo-1,2,3,4,5,6-hexahydro-2,6-naphthyridine-3-carboxamide], the IC50 was above 1000 nM.

Turning to `COc1cc(-c2cn(C)c(=O)c3c2CCN(C(=O)NC2CC2)C3)cc(OC)c1CN(C)C` [Compound B8, N-cyclopropyl-5-(4-((dimethylamino)methyl)-3,5-dimethoxyphenyl)-7-methyl-8-oxo-3,4,7,8-tetrahydro-2,7-naphthyridine-2 (1H)-carboxamide], the half-inhibitory concentration (IC50) is above 10 nM.

Consider `CNC(=O)N1CCc2c(c(-c3cc(OC)c(CN(C)C)c(OC)c3)cn(C)c2=O)C1` [Compound B18, 8-[4-[(dimethylamino)methyl]-3,5-dimethoxyphenyl]-N,6-dimethyl-5-oxo-3,4-dihydro-1H-2,6-naphthyridine-2-carboxamide], for which the IC50 was above 10 nM.

On to `COc1cc(-c2cn(C)c(=O)c3c2CN(C(=O)N(C)C)CC3)cc(OC)c1CN(C)C` [Compound B21, 8-[4-[(dimethylamino)methyl]-3,5-dimethoxyphenyl]-N,N,6-trimethyl-5-oxo-3,4-dihydro-1H-2,6-naphthyridine-2-carboxamide], for which the IC50 was above 100 nM.

`COc1cc(-c2cn(C)c(=O)c3c2CN(C(=O)NCCOCCNc2cccc4c2C(=O)N(C2CCC(=O)NC2=O)C4=O)CC3)cc(OC)c1CN(C)C` (stereo not shown) [Compound D27, 8-[4-[(dimethylamino)methyl]-3,5-dimethoxyphenyl]-N-[2-(2-[[2-(2,6-dioxopiperidin-3-yl)-1,3-dioxoisoindol-4-yl]amino]ethoxy)ethyl]-6-methyl-5-oxo-3,4-dihydro-1H-2,6-naphthyridine-2-carboxamide formic acid] gave an IC50 above 100 nM.

For `COc1cc(-c2cn(C)c(=O)c3c2CCN(C)C3)cc(OC)c1CN(C)C` [Compound B16, 4-[4-[(dimethylamino)methyl]-3,5-dimethoxyphenyl]-2,7-dimethyl-1,2,5,6,7,8-hexahydro-2,7-naphthyridin-1-one formic acid], the concentration for half-maximal inhibition (IC50) is above 1000 nM.

Take `CCCCNS(=O)(=O)N1CCc2c(-c3cc(OC)c(CN(C)C)c(OC)c3)cn(C)c(=O)c2C1` [Compound B19, N-butyl-5-{4-[(dimethylamino)methyl]-3,5-dimethoxyphenyl}-7-methyl-8-oxo-1,2,3,4,7,8-hexahydro-2,7-naphthyridine-2-sulfonamide]: the IC50 is above 10 nM.

`CCCCNC(=O)N1CCc2c(-c3cc(OC)c(CN(C)C)c(OC)c3)cn(C)c(=O)c2C1` [Compound B7, N-butyl-5-(4-((dimethylamino)methyl)-3,5-dimethoxyphenyl)-7-methyl-8-oxo-3,4,7,8-tetrahydro-2,7-naphthyridine-2 (1H)-carboxamide] gave an IC50 below 10 nM.

Compound `CCNC(=O)N1CCc2c(-c3cc(OC)c(CN(C)C)c(OC)c3)cn(C)c(=O)c2C1` [Compound B5, 5-(4-((dimethylamino)methyl)-3,5-dimethoxyphenyl)-N-ethyl-7-methyl-8-oxo-3,4,7,8-tetrahydro-2,7-naphthyridine-2 (1H)-carboxamide] displayed a 50% inhibitory concentration (IC50) below 10 nM.

Compound `COc1cc(-c2cn(C)c(=O)c3c2CCN(C(N)=O)C3)cc(OC)c1CN(C)C` [Compound B13, 5-[4-[(dimethylamino)methyl]-3,5-dimethoxyphenyl]-7-methyl-8-oxo-1,2,3,4,7,8-hexahydro-2,7-naphthyridine-2-carboxamide] gave a concentration for half-maximal inhibition (IC50) above 10 nM.

A further test addresses Nanoluciferase-BRD9 fusion protein (3×FLAG-NLuc-BRD9) in SYO-1 cells (Homo sapiens (Human), UniProt Q9H8M2). In words: SYO1 BRD9 NanoLuc degradation assay. The test is classed as cell-based. Particulars: SYO-1 cells expressing 3×FLAG-NLuc-BRD9, 6 hours incubation, top dose 1 μM. In a few lines:
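Degradation read as loss of NLuc signal after 6 h compound exposure (1 μM top final, 3-fold steps, 10 points, duplicates) in SYO-1 cells stably carrying 3×FLAG-NLuc-BRD9. Signal normalised between DMSO-treated cells and cells given 1 μM of a known BRD9 degrader.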
Turning to `CNC(=O)N1CCc2c(-c3cc(OC)c(CN4CCC5(CC4)CCN(C(C)(C)C#Cc4ccc6c(c4)C(=O)N(C4CCC(=O)NC4=O)C6=O)C5)c(OC)c3)cn(C)c(=O)c2C1` (stereo not shown) [Compound D137], the IC50 is 10 to 100 nM.

Regarding `COc1cc(-c2cn(C)c(=O)c3c2COC3)cc(OC)c1CN1CC(CN2CCC3(CC2)CN(c2ccc4c(c2)C(=O)N(C2CCC(=O)NC2=O)C4)C3)C1` (stereo not shown) [Compound D302], the IC50 is below 10 nM.

As for `CNC(=O)N1CCc2c(-c3cc(OC)c(C(C)N4CC(CN5CCC6(CC5)CN(c5ccc7c(c5)C(=O)N(C5CCC(=O)NC5=O)C7)C6)C4)c(OC)c3)cn(C)c(=O)c2C1` (stereo not shown) [Compound D59], the IC50 lay within 10 to 100 nM.

Regarding `COc1cc(-c2cn(C)c(=O)c3c2CCN(C(=O)NCC(F)F)C3)cc(OC)c1CN1CCN(CCC2CCN(c3ccc4c(c3)C(=O)N(C3CCC(=O)NC3=O)C4=O)CC2)CC1` (stereo not shown) [Compound D46], the IC50 is below 10 nM.

Compound `COc1cc(-c2cn(C)c(=O)c3c2CCN(C(=O)NCC2CC4CN(CCOc5ccc6c(c5)C(=O)N(C5CCC(=O)NC5=O)C6=O)CC4C2)C3)cc(OC)c1CN(C)C` (stereo not shown) [Compound D266] registered an IC50 of 10 to 100 nM.

The test is the same for the next values; noted with them: SYO-1 cells, 6 hours, Table 6C.
`CNC(=O)N1CCc2c(-c3cc(OC)c(CN4CCC5(CC4)CN(c4ccc6c(c4)C(=O)N(C4CCC(=O)NC4=O)C6)C5)c(OC)c3)cn(C)c(=O)c2C1` (stereo not shown) [Compound D308]: the IC50 was below 10 nM.
